Data from the supplement of paper PMC4862054.

Tests used:
Conditions in all cases: incubation time: 72 h
[1] = test system: BT-474; assay: normalised response (% of control), CellTox Green; higher = less cell death (100 = DMSO, 0 = benzethonium chloride kill control)
Method in brief: (§1)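 For each plate, 0.1 % DMSO was set to 100 and a positive kill control to 0. Breast cancer cell lines (20 µl suspension) were seeded into 384-well plates already holding compound at 5 concentrations in 10-fold steps over a 10,000-fold range chosen per compound, and incubated for 72 h. CellTox Green fluorescence at 485/520 nm was read before CellTiter-Glo luminescence, which followed 10 min at room temperature. Each value is the normalised signal at one concentration.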

[2] = test system: BT-549; assay: as above
Method in brief: as §1

[3] = test system: CAL-120; assay: as above
Method in brief: as §1

[4] = test system: CAL-148; assay: as above
Method in brief: as §1

[5] = test system: CAL-51; assay: as above
Method in brief: as §1

[6] = test system: CAL-85-1; assay: as above
Method in brief: as §1

[7] = test system: DU-4475; assay: as above
Method in brief: as §1

[8] = test system: HCC1143; assay: as above
Method in brief: as §1

[9] = test system: HCC1599; assay: as above
Method in brief: as §1

[10] = test system: HDQ-P1; assay: as above
Method in brief: as §1

[11] = test system: Hs578T; assay: as above
Method in brief: as §1

[12] = test system: MCF-10A; assay: as above
Method in brief: as §1

[13] = test system: MDA-MB-231; assay: as above
Method in brief: as §1

[14] = test system: MDA-MB-436; assay: as above
Method in brief: as §1

[15] = test system: MDA-MB-453; assay: as above
Method in brief: as §1

[16] = test system: MDA-MB-468; assay: as above
Method in brief: as §1

[17] = test system: MFM-223; assay: as above
Method in brief: as §1

[18] = test system: BT-474; assay: normalised response (% of control), CellTiter-Glo; higher = more viable cells (100 = DMSO, 0 = benzethonium chloride kill control)
Method in brief: as §1

[19] = test system: BT-549; assay: as above
Method in brief: as §1

[20] = test system: CAL-120; assay: as above
Method in brief: as §1

[21] = test system: CAL-148; assay: as above
Method in brief: as §1

[22] = test system: CAL-51; assay: as above
Method in brief: as §1

[23] = test system: CAL-85-1; assay: as above
Method in brief: as §1

[24] = test system: DU-4475; assay: as above
Method in brief: as §1

[25] = test system: HCC1143; assay: as above
Method in brief: as §1

[26] = test system: HCC1599; assay: as above
Method in brief: as §1

[27] = test system: HCC1937; assay: as above
Method in brief: as §1

[28] = test system: HDQ-P1; assay: as above
Method in brief: as §1

[29] = test system: Hs578T; assay: as above
Method in brief: as §1

[30] = test system: MCF-10A; assay: as above
Method in brief: as §1

[31] = test system: MDA-MB-231; assay: as above
Method in brief: as §1

[32] = test system: MDA-MB-436; assay: as above
Method in brief: as §1

[33] = test system: MDA-MB-453; assay: as above
Method in brief: as §1

[34] = test system: MDA-MB-468; assay: as above
Method in brief: as §1

[35] = test system: MFM-223; assay: as above
Method in brief: as §1

[36] = test system: SK-BR-3; assay: as above
Method in brief: as §1

[37] = test system: HCC1937; assay: normalised response (% of control), CellTox Green; higher = less cell death (100 = DMSO, 0 = benzethonium chloride kill control)
Method in brief: as §1

Compound | normalised response [1] | normalised response [2] | normalised response [3] | normalised response [4] | normalised response [5] | normalised response [6] | normalised response [7] | normalised response [8] | normalised response [9] | normalised response [10] | normalised response [11] | normalised response [12] | normalised response [13] | normalised response [14] | normalised response [15] | normalised response [16] | normalised response [17] | normalised response [18] | normalised response [19] | normalised response [20] | normalised response [21] | normalised response [22] | normalised response [23] | normalised response [24] | normalised response [25] | normalised response [26] | normalised response [27] | normalised response [28] | normalised response [29] | normalised response [30] | normalised response [31] | normalised response [32] | normalised response [33] | normalised response [34] | normalised response [35] | normalised response [36] | normalised response [37]
CC1(C)CCC(CN2CCN(c3ccc(C(=O)NS(=O)(=O)c4ccc(NCC5CCOCC5)c([N+](=O)[O-])c4)c(Oc4cnc5[nH]ccc5c4)c3)CC2)=C(c2ccc(Cl)cc2)C1 [ABT-199] (1000 nM) | 99.9% | 76.5% | 89.8% | 71.6% | 87.8% | 102% | 98% | 74.1% | 92.1% | 104% | 105% | 112% | 102% | 85% | 99.2% | 66.1% | 99.2% | 95.4% | 101% | 99.5% | 105% | 69.8% | 96.9% | 90.6% | 101% | 105% | 103% | 97.4% | 98.7% | 96.9% | 99.3% | 94.8% | 102% | 93.6% | 94.5% | 107% | –
CC(=O)N(O)CCCCCNC(=O)CCC(=O)N(O)CCCCCNC(=O)CCC(=O)N(O)CCCCCN [Deferoxamine] (1000 nM) | 96.8% | 102% | 96.8% | 2.01% | 91.1% | 110% | 97.5% | 82.2% | 96.7% | 106% | 97.3% | 79.7% | 96.7% | 73.7% | 100% | 143% | 70.8% | 90.9% | 72.7% | 96.1% | 59.6% | 88.7% | 102% | 85.8% | 79.5% | 98.2% | 76.8% | 93.6% | 96.8% | 97.7% | 86.8% | 87.4% | 84.2% | 63.3% | 89.5% | 84.2% | -39.7%
C[C@]12CC[C@@H]3c4ccc(OC(=O)N(CCCl)CCCl)cc4CC[C@H]3[C@@H]1CC[C@@H]2O [Estramustine] (1000 nM) | 89% | 98.6% | 93.9% | 46.8% | 84.7% | 107% | 96.5% | 103% | 90.2% | 70.6% | – | 55.8% | 94% | 93.3% | 97.3% | 182% | 93.1% | 96.1% | 104% | 99.9% | 78.6% | 80.7% | 93.3% | 88.5% | 93.5% | 111% | 95.5% | 103% | 95.9% | 92% | 94.4% | 98.5% | 93.5% | 87.1% | 86.2% | 87.4% | 67%
Cc1ccc([N+](=O)[O-])cc1S(=O)(=O)N(C)/N=C/c1cnc2ccc(Br)cn12 [PIK-75] (1 nM) | – | – | – | – | – | – | – | – | – | – | – | – | – | – | – | – | – | 89.6% | 99% | 92.4% | 96.4% | 73.8% | 92.2% | 95.6% | 93.8% | 108% | 94.7% | 98.8% | 97.9% | 95% | 92.9% | 88.9% | 100% | 94.9% | 92.2% | 99.6% | –
Cc1ccc([N+](=O)[O-])cc1S(=O)(=O)N(C)/N=C/c1cnc2ccc(Br)cn12 [PIK-75] (10 nM) | – | – | – | – | – | – | – | – | – | – | – | – | – | – | – | – | – | 83.5% | 101% | 86.8% | 90.3% | 79.1% | 89.3% | 97% | 90.2% | 96.9% | 90.3% | 95.5% | 91.5% | 108% | 88.9% | 99.1% | 79.2% | 82.2% | 92.7% | 74.4% | –
CC(=O)c1c(C)c2cnc(Nc3ccc(N4CCNCC4)cn3)nc2n(C2CCCC2)c1=O [Palbociclib] (1 nM) | – | – | – | – | – | – | – | – | – | – | – | – | – | – | – | – | – | 89.6% | 100% | 95% | 88.4% | 118% | 97.8% | 97.8% | 88% | 96.1% | 101% | 90.1% | 95.7% | 89.3% | 91.6% | 101% | 99.2% | 91.9% | 90.3% | 86% | –
CC(=O)c1c(C)c2cnc(Nc3ccc(N4CCNCC4)cn3)nc2n(C2CCCC2)c1=O [Palbociclib] (10 nM) | – | – | – | – | – | – | – | – | – | – | – | – | – | – | – | – | – | 97.2% | 100% | 95.2% | 87% | 115% | 92% | 97.2% | 94.5% | 107% | 101% | 97.9% | 100% | 97.3% | 92.1% | 95.4% | 93.6% | 92.4% | 91.2% | 89.5% | –
CC[C@@H]1C(=O)OC[C@@H]1Cc1cncn1C [Pilocarpine] (40 nM) | – | – | – | – | – | – | – | – | – | – | – | – | – | – | – | – | – | 94.3% | 96.1% | 94.2% | 96.8% | 127% | 103% | 102% | 103% | 81% | 97.6% | 98.3% | 98.1% | 98.1% | 97.4% | 94% | 106% | 94.7% | 96.1% | 89.9% | –
COc1cc(F)c(F)c(Nc2ccc(I)cc2F)c1NS(=O)(=O)C1(C[C@H](O)CO)CC1 [Refametinib] (1 nM) | – | – | – | – | – | – | – | – | – | – | – | – | – | – | – | – | – | 91.2% | 98.6% | 101% | 101% | 75.2% | 97% | 104% | 93.6% | 99.5% | 93.6% | 92.8% | 92.9% | 79.4% | 100% | 91.6% | 87.9% | 92.7% | 94.4% | 91.2% | –
COc1cc(F)c(F)c(Nc2ccc(I)cc2F)c1NS(=O)(=O)C1(C[C@H](O)CO)CC1 [Refametinib] (10 nM) | – | – | – | – | – | – | – | – | – | – | – | – | – | – | – | – | – | 95.5% | 96.5% | 99.5% | 86.9% | 130% | 90.7% | 92% | 95.8% | 109% | 97.9% | 89.2% | 96.5% | 58.5% | 94.4% | 90.7% | 101% | 87.2% | 87.9% | 79.6% | –
CC(C)(C)c1cnc(CSc2cnc(NC(=O)C3CCNCC3)s2)o1 [SNS-032] (10 nM) | – | – | – | – | – | – | – | – | – | – | – | – | – | – | – | – | – | 93.4% | 95.1% | 96.6% | 98.5% | 65.3% | 109% | 99.2% | 89.7% | 107% | 97.8% | 92.1% | 102% | 105% | 96.5% | 101% | 99.6% | 96.7% | 97.2% | 95.8% | –
Cn1cnc2c(F)c(Nc3ccc(Br)cc3Cl)c(C(=O)NOCCO)cc21 [Selumetinib] (10 nM) | – | – | – | – | – | – | – | – | – | – | – | – | – | – | – | – | – | 89.8% | 99.9% | 93% | 90.6% | 107% | 107% | 95.1% | 91% | 95% | 97.3% | 86.6% | 99.4% | 77.4% | 97.2% | 96.3% | 96.8% | 94.8% | 90.8% | 90.6% | –
